{"source": "paper PMC7614775", "about": "(Nature chemical biology, 2022)", "key": {"[1]": {"tested_on": "IFNα-stimulated STAT1 phosphorylation", "experiment": "HTRF phospho-STAT1 assay in human PBMCs", "assay_type": "cell-based", "details": "read-out: IC50, IFNα-stimulated STAT1 phosphorylation (HTRF)"}, "TYK2_C838": {"biological_target": "TYK2_C838 (Homo sapiens, UniProt P29597)", "sequence (P29597 whole entry)": "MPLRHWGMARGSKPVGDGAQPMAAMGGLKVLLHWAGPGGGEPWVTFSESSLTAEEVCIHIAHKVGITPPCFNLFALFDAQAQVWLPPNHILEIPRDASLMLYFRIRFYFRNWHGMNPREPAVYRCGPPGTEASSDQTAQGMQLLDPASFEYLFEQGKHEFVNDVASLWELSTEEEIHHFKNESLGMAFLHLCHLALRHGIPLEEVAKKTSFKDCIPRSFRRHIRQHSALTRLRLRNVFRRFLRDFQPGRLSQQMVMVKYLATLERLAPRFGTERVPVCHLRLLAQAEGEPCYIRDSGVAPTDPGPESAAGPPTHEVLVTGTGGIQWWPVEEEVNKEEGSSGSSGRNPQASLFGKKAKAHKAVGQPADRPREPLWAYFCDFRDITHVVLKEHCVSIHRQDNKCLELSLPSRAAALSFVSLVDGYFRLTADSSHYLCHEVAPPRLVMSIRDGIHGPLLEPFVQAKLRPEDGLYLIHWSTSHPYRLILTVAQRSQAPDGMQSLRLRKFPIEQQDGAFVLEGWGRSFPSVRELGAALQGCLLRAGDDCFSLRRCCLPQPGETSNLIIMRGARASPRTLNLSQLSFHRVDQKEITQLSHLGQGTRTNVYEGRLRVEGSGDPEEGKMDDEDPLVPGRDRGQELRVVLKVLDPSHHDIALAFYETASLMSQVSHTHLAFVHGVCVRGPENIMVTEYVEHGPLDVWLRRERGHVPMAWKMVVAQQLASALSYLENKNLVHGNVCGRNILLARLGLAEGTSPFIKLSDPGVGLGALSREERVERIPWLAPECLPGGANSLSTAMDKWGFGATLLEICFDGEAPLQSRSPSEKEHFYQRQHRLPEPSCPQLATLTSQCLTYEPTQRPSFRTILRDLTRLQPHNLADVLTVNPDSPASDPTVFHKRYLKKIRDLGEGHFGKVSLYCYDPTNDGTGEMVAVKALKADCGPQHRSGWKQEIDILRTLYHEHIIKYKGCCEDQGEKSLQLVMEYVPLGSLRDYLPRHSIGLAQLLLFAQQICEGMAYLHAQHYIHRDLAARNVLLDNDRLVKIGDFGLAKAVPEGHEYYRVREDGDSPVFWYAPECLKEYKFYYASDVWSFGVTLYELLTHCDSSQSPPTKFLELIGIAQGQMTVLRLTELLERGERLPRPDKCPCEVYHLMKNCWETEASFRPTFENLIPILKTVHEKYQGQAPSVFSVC", "experiment": "Untargeted cysteine MS-ABPP, human PBMCs treated in situ", "assay_type": "binding"}, "HMOX2_C282": {"biological_target": "T1, HMOX2_C282 (Homo sapiens, UniProt P30519)", "T1 sequence (P30519 1-316)": "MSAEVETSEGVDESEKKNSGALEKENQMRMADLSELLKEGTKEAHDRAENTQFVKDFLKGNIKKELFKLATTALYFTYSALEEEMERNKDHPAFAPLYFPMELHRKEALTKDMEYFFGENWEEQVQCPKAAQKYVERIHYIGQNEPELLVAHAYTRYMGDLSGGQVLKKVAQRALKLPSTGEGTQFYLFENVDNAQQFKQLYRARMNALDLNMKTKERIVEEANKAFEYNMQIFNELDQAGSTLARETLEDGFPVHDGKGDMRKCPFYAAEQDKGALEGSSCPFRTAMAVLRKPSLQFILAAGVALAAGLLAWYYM", "experiment": "Untargeted cysteine MS-ABPP, human PBMCs treated in situ", "assay_type": "binding"}, "JAK1_C817": {"biological_target": "JAK1_C817 (Homo sapiens, UniProt P23458)", "sequence (P23458 whole entry)": "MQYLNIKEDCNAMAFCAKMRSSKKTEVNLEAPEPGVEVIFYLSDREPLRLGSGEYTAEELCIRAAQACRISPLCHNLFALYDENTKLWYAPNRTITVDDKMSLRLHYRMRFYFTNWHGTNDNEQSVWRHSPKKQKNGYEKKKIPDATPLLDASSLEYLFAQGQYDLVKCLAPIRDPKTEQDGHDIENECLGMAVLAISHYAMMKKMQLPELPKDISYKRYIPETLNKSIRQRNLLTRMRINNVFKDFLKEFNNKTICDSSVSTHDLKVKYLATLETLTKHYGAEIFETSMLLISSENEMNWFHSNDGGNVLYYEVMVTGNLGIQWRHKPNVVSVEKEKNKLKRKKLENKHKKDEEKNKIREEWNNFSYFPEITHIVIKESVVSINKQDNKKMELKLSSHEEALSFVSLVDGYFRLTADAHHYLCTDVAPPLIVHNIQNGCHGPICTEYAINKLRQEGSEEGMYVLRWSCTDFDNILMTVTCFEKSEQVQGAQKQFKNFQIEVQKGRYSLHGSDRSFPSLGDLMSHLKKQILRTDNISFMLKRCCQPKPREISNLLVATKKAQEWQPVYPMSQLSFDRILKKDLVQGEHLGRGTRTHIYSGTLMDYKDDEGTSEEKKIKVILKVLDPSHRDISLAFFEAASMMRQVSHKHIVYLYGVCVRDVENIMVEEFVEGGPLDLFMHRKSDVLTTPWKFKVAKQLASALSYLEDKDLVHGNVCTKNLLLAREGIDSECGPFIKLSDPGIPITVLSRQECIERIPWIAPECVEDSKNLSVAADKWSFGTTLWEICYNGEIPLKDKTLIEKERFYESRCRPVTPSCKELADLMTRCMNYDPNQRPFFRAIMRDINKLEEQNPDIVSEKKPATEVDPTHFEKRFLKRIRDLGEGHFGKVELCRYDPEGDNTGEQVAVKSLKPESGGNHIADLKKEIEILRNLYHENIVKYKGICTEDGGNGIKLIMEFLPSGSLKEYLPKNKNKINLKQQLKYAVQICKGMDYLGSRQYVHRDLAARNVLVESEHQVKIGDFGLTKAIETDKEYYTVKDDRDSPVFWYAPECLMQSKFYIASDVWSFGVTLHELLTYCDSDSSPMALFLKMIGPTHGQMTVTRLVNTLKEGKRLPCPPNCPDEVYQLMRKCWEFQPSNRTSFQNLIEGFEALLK", "experiment": "Untargeted cysteine MS-ABPP, human PBMC lysates treated in vitro", "assay_type": "binding", "details": "PBMC lysate in vitro, 1 h"}, "[2]": {"tested_on": "IFNα-stimulated STAT1 phosphorylation", "experiment": "Phospho-STAT western blot in 22Rv1 cells expressing JAK1 variants", "assay_type": "cell-based, human"}, "[3]": {"tested_on": "IL-6-stimulated STAT3 phosphorylation", "experiment": "Phospho-STAT western blot in 22Rv1 cells expressing JAK1 variants", "assay_type": "cell-based, human"}, "GM-CSF-STAT5 signaling": {"tested_on": "GM-CSF-STAT5 signaling", "experiment": "Phospho-STAT western blot in mouse splenocytes", "assay_type": "cell-based"}, "IL-12-STAT4 signaling": {"tested_on": "IL-12-STAT4 signaling", "experiment": "Phospho-STAT western blot in mouse splenocytes", "assay_type": "cell-based"}, "[4]": {"tested_on": "IFNα-stimulated human PBMCs", "experiment": "Multiplex immunoassay of cytokines/chemokines", "assay_type": "cell-based", "details": "compound 2 h, then IFNα 100 ng/mL, 16 h"}, "[5]": {"biological_target": "recombinant TYK2 (WT, C838A) (Homo sapiens, UniProt P29597)", "sequence (P29597 whole entry C838A)": "as the sequence (P29597 whole entry) above, with C838A counted along it", "experiment": "Gel-based ABPP in 22Rv1 cells", "assay_type": "binding", "details": "pre-treatment 0.01–1 μM, 2 h, in situ"}, "[6]": {"details": "C817A-JAK1-expressing 22Rv1 cells, up to 2 µM"}, "[7]": {"details": "WT- or C810A-JAK1-expressing 22Rv1 cells, 2 µM, 2 h"}, "[8]": {"details": "WT- or C810A-JAK1-expressing 22Rv1 cells, at ~0.2 µM"}}, "note": "Where two headings read alike, the source gives them in different places.", "data": [{"smiles": "CS(=O)(=O)N1CC[C@H](C#CC(=O)N2CCC[C@@H](c3ccc(Cl)c(Cl)c3)C2)C1", "note": "[VVD-118313]", "values": [{"measurement": "IC50", "setting": "[1]; media supplemented with 10% fetal bovine serum (FBS)", "value": 46, "unit": "nM"}, {"measurement": "IC50", "setting": "[1]; serum-free media", "value": 32, "unit": "nM"}, {"measurement": "%Engagement", "setting": "TYK2_C838; 0.01 µM", "value": 9, "unit": "%"}, {"measurement": "Engagement Ratio (DMSO/VVD-118313)", "setting": "TYK2_C838; 0.01 µM", "value": 1.1}, {"measurement": "Engagement Ratio (DMSO/VVD-118313)", "setting": "TYK2_C838; 0.1 µM", "value": 5.4}, {"measurement": "%Engagement", "setting": "TYK2_C838; 1 µM", "value": 92, "unit": "%"}, {"measurement": "Engagement Ratio (DMSO/VVD-118313)", "setting": "TYK2_C838; 1 µM", "value": 12.5}, {"measurement": "%Engagement", "setting": "TYK2_C838; 10 µM", "value": 95, "unit": "%"}, {"measurement": "Engagement Ratio (DMSO/VVD-118313)", "setting": "TYK2_C838; 10 µM", "value": 18.2}, {"measurement": "Engagement Ratio (DMSO/VVD-118313)", "setting": "HMOX2_C282; 0.01 µM", "value": 1.0}, {"measurement": "%Engagement", "setting": "HMOX2_C282; 0.1 µM", "value": 27, "unit": "%"}, {"measurement": "Engagement Ratio (DMSO/VVD-118313)", "setting": "HMOX2_C282; 0.1 µM", "value": 1.4}, {"measurement": "%Engagement", "setting": "HMOX2_C282; 1 µM", "value": "engaged"}, {"measurement": "Engagement Ratio (DMSO/VVD-118313)", "setting": "HMOX2_C282; 1 µM", "value": 12.5}, {"measurement": "%Engagement", "setting": "HMOX2_C282; 10 µM", "value": 98, "unit": "%"}, {"measurement": "Engagement Ratio (DMSO/VVD-118313)", "setting": "HMOX2_C282; 10 µM", "value": 20.0}, {"measurement": "%Engagement", "setting": "JAK1_C817; 0.01 µM", "value": 81, "unit": "%"}, {"measurement": "Engagement Ratio (DMSO/VVD-118313)", "setting": "JAK1_C817; 0.01 µM", "value": 5.1}, {"measurement": "%Engagement", "setting": "JAK1_C817; 0.1 µM", "value": 96, "unit": "%"}, {"measurement": "Engagement Ratio (DMSO/VVD-118313)", "setting": "JAK1_C817; 0.1 µM", "value": 20.0}, {"measurement": "%Engagement", "setting": "JAK1_C817; 1 µM", "value": 97, "unit": "%"}, {"measurement": "Engagement Ratio (DMSO/VVD-118313)", "setting": "JAK1_C817; 1 µM", "value": 20.0}, {"measurement": "%Engagement", "setting": "JAK1_C817; 10 µM", "value": 98, "unit": "%"}, {"measurement": "Engagement Ratio (DMSO/VVD-118313)", "setting": "JAK1_C817; 10 µM", "value": 20.0}, {"measurement": "inhibition of IFNα-STAT1 phosphorylation", "setting": "[2]; [6]", "value": "< 10", "unit": "%"}, {"measurement": "effect on IFNα-stimulated pSTAT1", "setting": "[2]; [7]", "value": "blocked"}, {"measurement": "maximal inhibition of IFNα-STAT1 phosphorylation", "setting": "[2]; [8]", "value": "> 80", "unit": "%"}, {"measurement": "inhibition of IL-6-STAT3 phosphorylation", "setting": "[3]; [6]", "value": "< 10", "unit": "%"}, {"measurement": "effect on IL-6-stimulated pSTAT3", "setting": "[3]; [7]", "value": "blocked"}, {"measurement": "maximal inhibition of IL-6-STAT3 phosphorylation", "setting": "[3]; [8]", "value": "> 80", "unit": "%"}, {"measurement": "effect on GM-CSF-STAT5 signaling", "setting": "GM-CSF-STAT5 signaling", "value": "sparing"}, {"measurement": "effect on IL-12-STAT4 signaling", "setting": "IL-12-STAT4 signaling", "value": "sparing"}, {"measurement": "induction of pro-inflammatory chemokines (CCL2/MCP-1, CXCL10/IP-10, CCL4/MIP-1β)", "setting": "[4]", "value": "near-completely suppressed"}, {"measurement": "competition of probe 6 reactivity with WT-TYK2", "setting": "[5]", "value": "blocked probe 6 reactivity"}]}]}
